The results in this text go back to US20200115353A1, “NEW COMPOUNDS INHIBITORS OF THE YAP/TAZ-TEAD INTERACTION AND THEIR USE IN THE TREATMENT OF MALIGNANT MESOTHELIOMA” (INVENTIVA, priority 2017, published 2020).

By IC50 is commonly meant the concentration that inhibits the measured activity by half. A lower IC50 goes with greater potency in that assay. Usually melting point stands for the temperature, or range, at which the solid turns liquid.

Each structure is given as a SMILES string.

The target in the first data set is T1, YAP-TEAD interaction (full length human TEAD1-Gal4 fusion, full length YAP mutant S127A, S397A) (UniProt P04386+P28347).
T1 construct: The TEAD1 construct was prepared by cloning the full length human TEAD1 cDNA; expressed in transfected cells; host or cells: HEK293 GripTite 293 MSR (Invitrogen R795-07), transiently transfected with pSG5_CMV plasmids
T1 sequence (P04386+P28347 fused, stated change not applied): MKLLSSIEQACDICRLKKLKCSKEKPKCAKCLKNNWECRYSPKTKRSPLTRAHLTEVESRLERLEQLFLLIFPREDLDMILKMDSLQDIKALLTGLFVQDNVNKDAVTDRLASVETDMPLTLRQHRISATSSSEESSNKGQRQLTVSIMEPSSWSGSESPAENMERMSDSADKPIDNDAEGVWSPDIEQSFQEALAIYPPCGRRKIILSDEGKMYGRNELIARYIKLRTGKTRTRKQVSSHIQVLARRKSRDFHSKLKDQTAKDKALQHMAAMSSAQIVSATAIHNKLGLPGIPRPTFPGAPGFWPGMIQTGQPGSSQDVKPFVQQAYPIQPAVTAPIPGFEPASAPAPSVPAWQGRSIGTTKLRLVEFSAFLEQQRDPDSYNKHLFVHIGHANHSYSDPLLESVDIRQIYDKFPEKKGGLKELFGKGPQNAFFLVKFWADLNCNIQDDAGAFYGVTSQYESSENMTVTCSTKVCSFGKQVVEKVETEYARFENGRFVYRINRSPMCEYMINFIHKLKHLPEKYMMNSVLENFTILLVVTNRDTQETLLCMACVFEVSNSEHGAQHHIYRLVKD
In words: Cell-based TEAD-GAL4 transactivation assay (luciferase reporter, HEK293). The settings on record: HEK293 cells, compounds 0.1 μM to 30 μM, 24 h, concentration that inhibited the luciferase activity by 50%. As to the method:
To identify inhibitors of YAP-TEAD interaction, a transient transactivation assays was carried out into HEK293 cell line (HEK293 GripTite™ 293 MSR (Invitrogen R795-07)) using plasmids containing the full length TEAD1 sequences, the full length YAP mutant (S127A, S397A) and a luciferase gene reporter. All expression constructs were performed into pSG5 backbone plasmid in which the SV40 promoter was replaced by the CMV promoter. The TEAD1 construct was prepared by cloning the full length human TEAD1 cDNA in fusion with the Gal4 DNA Binding Domain (AA 1-148) into pSG5_CMV to create the TEAD1(FL)_hum_pSG5Gal4_CMV. The full length YAP mutant (S127A, S397A) was also cloned into pSG_5 CMV to create the YAP(FL)_hum_pSG5_[…]. The reporter plasmid GAL4(5×RE)_[…]_pGL3-Basic contains 5 copies of the GAL4 responsive element (5′-TCGGAGGACAGTACTCC-3′) upstream of the thymidine kinase (TK) promoter (−105/+56) inserted in a pGL3-Basic vector. To evaluate the selectivity of our compounds in blocking the YAP-TEAD interaction, a counter-screening protein-protein interaction transactivation assays was also established. Briefly, two other expression plasmids, the pBD-P53 which express the P53 (AA 72-390) in fusion with Gal4 and the pAD-SV40T which express the SV40 large T antigen (AA 84-708,AgT), were created. HEK293 cells were seeded at 5×10^4 cells/well in 96 well plates (assay plates) in DMEM medium containing 4.5 g/L D-glucose, 10% high inactivated (HI) fetal bovine serum 1% Glutamax, 1% non-essential amino acid and 1% sodium pyruvate and 0.5% penicillin/streptomycin 37° C. in a humidified atmosphere of 8% CO2. After 24 h, transfections are performed using Jet-PEI as transfectant (101B-010 Polyplus Transfection), according to the instructions of the manufacturer (N/P=10) and a ratio YAP/TEAD=10 (per well: 50 ng of YAP(FL), 5 ng of TEAD(FL) and 50 ng of reporter plasmid). Six hours after cell transfection, the plates (‘assay plate’) were washed with 100 μl PBS per well and cell were treated with compounds in semi-log from 0.1 μM to 30 μM or DMSO 0.5% as control in DMEM 4.5 g/L D-Glucose without phenol red, 0.3% BSA, 1% glutamax, 1% NEAA, 1% sodium pyruvate. Twenty-four hours later, the luciferase activity was determined after addition of 100 μl of Steady Glo™ luciferase assay system (Promega E2550) according to the manufacturer's directions. Luciferase activity in cell extracts is measured by reading luminescence using the Envision device.
The cellular response was determined by fitting the concentration response curves using a 3-parameter curve fit equation and determining the concentration that inhibited the luciferase activity by 50%.
(Reporter assays use an easily measured gene product as a stand-in for the process of interest.)
For `CCOc1ccc2c(c1)S(=O)(=O)N=C2N(CC(C)C)/N=C/c1ccc2c(c1)C(CC)(CC)C(=O)N2` [Ex 97, 5-[(E)-[(6-ethoxy-1,1-dioxo-1,2-benzothiazol-3-yl)-isobutyl-hydrazono]methyl]-3,3-diethyl-indolin-2-one], the concentration for half-maximal inhibition (IC50) turned out to be 2.77 µM.

On to `COc1cc(/C=N/N(C)C2=NS(=O)(=O)c3ccc(OCCN(C)C)cc32)ccc1F` [Ex 57, 5-[2-(dimethylamino)ethoxy]-N-[(E)-(4-fluoro-3-methoxy-phenyl)methyleneamino]-N-methyl-1,1-dioxo-1,2-benzothiazol-3-amine], for which the IC50 worked out at 0.53 µM. On the same count and under the same terms, in the case of `CCCOc1cc(/C=N/N(C)C2=NS(=O)(=O)c3ccccc32)ccc1F` [Ex 12, N-[(E)-(4-fluoro-3-propoxy-phenyl)methyleneamino]-N-methyl-1,1-dioxo-1,2-benzothiazol-3-amine] it was 1.56 µM; in that of `CCOCCN(/N=C/c1ccc(F)c(OC)c1)C1=NS(=O)(=O)c2ccccc21` [Ex 43, N-(2-ethoxyethyl)-N-[(E)-(4-fluoro-3-methoxy-phenyl)methyleneamino]-1,1-dioxo-1,2-benzothiazol-3-amine], 2.78 µM. The same measure, in the same setting: in the case of `Cc1ccc2c(c1)C(N(C)/N=C/c1ccc3[nH]c(=O)n(C)c3c1)=NS2(=O)=O` [Ex 70, 3-methyl-5-[(E)-[methyl-(5-methyl-1,1-dioxo-1,2-benzothiazol-3-yl) hydrazono]methyl]-1H-benzimidazol-2-one] it was 1.58 µM; in that of `CSc1cc(/C=N/N(C)C2=NS(=O)(=O)c3ccccc32)ccc1F` [Ex 86, N-[(E)-(4-fluoro-3-methylsulfanyl-phenyl)methyleneamino]-N-methyl-1,1-dioxo-1,2-benzothiazol-3-amine], 1.31 µM. The compound `COCn1c(=O)n(C2CCC2)c2cc(/C=N/N(C)C3=NS(=O)(=O)c4ccccc43)ccc21` [Ex 111, 3-cyclobutyl-5-[(E)-[(1,1-dioxo-1,2-benzothiazol-3-yl)-methyl-hydrazono]methyl]-1-(methoxymethyl)benzimidazol-2-one] had an IC50 of 8.57 µM. For `COc1cc(/C=N/N(CC(C)C)C2=NS(=O)(=O)c3ccc(OCB(O)O)cc32)ccc1F` [Ex 95, [3-[[(E)-(4-fluoro-3-methoxy-phenyl)methyleneamino]-isobutyl-amino]-1,1-dioxo-1,2-benzothiazol-5-yl]oxymethylboronic acid], 1.35 µM corresponded to half-maximal inhibition (IC50).

Compound `CCOCn1c(=O)n(C2CCC2)c2cc(/C=N/N(C)C3=NS(=O)(=O)c4ccccc43)ccc21` [Ex 116, 3-cyclobutyl-5-[(E)-[(1,1-dioxo-1,2-benzothiazol-3-yl)-methyl-hydrazono]methyl]-1-(ethoxymethyl)benzimidazol-2-one] came in with a half-inhibitory concentration (IC50) of 5.03 µM. Still for that read-out and setting: in the case of `CC(C)CN(/N=C/c1ccc2[nH]c(=O)n(C)c2c1)C1=NS(=O)(=O)c2cc(B(O)O)ccc21` [Ex 65, [3-[isobutyl-[(E)-(3-methyl-2-oxo-1H-benzimidazol-5-yl)methyleneamino]amino]-1,1-dioxo-1,2-benzothiazol-6-yl]boronic acid] it was 4.04 µM. In turn, `COc1cc(/C=N/N(CC(C)C)C2=NS(=O)(=O)c3cc(OCB(O)O)ccc32)ccc1F` [Ex 92, [3-[[(E)-(4-fluoro-3-methoxy-phenyl)methyleneamino]-isobutyl-amino]-1,1-dioxo-1,2-benzothiazol-6-yl]oxymethylboronic acid] showed an IC50 of 0.86 µM. On the same count and under the same terms, in the case of `CN(/N=C/c1cnc(-c2ccccc2)s1)C1=NS(=O)(=O)c2ccccc21` [Ex 8, N-methyl-1,1-dioxo-N-[(E)-(2-phenylthiazol-5-yl)methyleneamino]-1,2-benzothiazol-3-amine] it was 5.19 µM. The same measure, in the same setting: in the case of `CC(C)Oc1cc(/C=N/N(C)C2=NS(=O)(=O)c3ccccc32)ccc1F` [Ex 13, N-[(E)-(4-fluoro-3-isopropoxy-phenyl)methyleneamino]-N-methyl-1,1-dioxo-1,2-benzothiazol-3-amine] it was 3.35 µM. On the same count and under the same terms, in the case of `CN(/N=C/c1ccc(F)c(C(N)=O)c1)C1=NS(=O)(=O)c2ccccc21` [Ex 17, 5-[(E)-[(1,1-dioxo-1,2-benzothiazol-3-yl)-methyl-hydrazono]methyl]-2-fluoro-benzamide] it was 2.75 µM; in that of `CC(C)n1c(=O)[nH]c2ccc(/C=N/N(C)C3=NS(=O)(=O)c4ccccc43)cc21` [Ex 26, 5-[(E)-[(1,1-dioxo-1,2-benzothiazol-3-yl)-methyl-hydrazono]methyl]-3-isopropyl-1H-benzimidazol-2-one], 0.62 µM; in that of `COc1cc(/C=N/N(C)C2=NS(=O)(=O)c3ccc(OCC(=O)N(C)C)cc32)ccc1F` [Ex 58, 2-[[3-[[(E)-(4-fluoro-3-methoxy-phenyl)methyleneamino]-methyl-amino]-1,1-dioxo-1,2-benzothiazol-5-yl]oxy]-N,N-dimethyl-acetamide], 3.42 µM. Compound `CCN(/N=C/c1ccc(F)c(OC)c1)C1=NS(=O)(=O)c2cc(B(O)O)ccc21` [Ex 62, [3-[ethyl-[(E)-(4-fluoro-3-methoxy-phenyl)methyleneamino]amino]-1,1-dioxo-1,2-benzothiazol-6-yl]boronic acid] came in with an IC50 of 1.98 µM. Still for that read-out and setting: in the case of `CCC1(CC)C(=O)Nc2ccc(/C=N/N(CC(C)C)C3=NS(=O)(=O)c4cc(OC(C)C)ccc43)cc21` [Ex 99, 3,3-diethyl-5-[(E)-[isobutyl-(6-isopropoxy-1,1-dioxo-1,2-benzothiazol-3-yl)hydrazono]methyl]indolin-2-one] it was 4.14 µM; in that of `CSc1cc(/C=N/N(CC(C)C)C2=NS(=O)(=O)c3ccccc32)ccc1F` [Ex 107, N-[(E)-(4-fluoro-3-methylsulfanyl-phenyl)methyleneamino]-N-isobutyl-1,1-dioxo-1,2-benzothiazol-3-amine], 2.14 µM; in that of `COc1cc(/C=N/N(CC(C)C)C2=NS(=O)(=O)c3ccc(B(O)O)cc32)ccc1F` [Ex 94, [3-[[(E)-(4-fluoro-3-methoxy-phenyl)methyleneamino]-isobutyl-amino]-1,1-dioxo-1,2-benzothiazol-5-yl]boronic acid], 3.31 µM.

System in a further data set: not given
Assay: not given
Conditions: not given
The compound `COc1cc(/C=N/N(C)C2=NS(=O)(=O)c3cc(O)ccc32)ccc1F` [Ex 51, 3-[[(E)-(4-fluoro-3-methoxy-phenyl)methyleneamino]-methyl-amino]-1,1-dioxo-1,2-benzothiazol-6-ol] showed a melting point of 258 °C. The same measure, in the same setting: in the case of `CN(/N=C/c1ccc2c(c1)C(C)(C)C(=O)N2)C1=NS(=O)(=O)c2ccccc21` [Ex 33, 5-[(E)-[(1,1-dioxo-1,2-benzothiazol-3-yl)-methyl-hydrazono]methyl]-3,3-dimethyl-indolin-2-one] it was greater than 300 °C; in that of `CN(/N=C/c1ccc(F)c(Cl)n1)C1=NS(=O)(=O)c2ccccc21` [Ex 37, N-[(E)-(6-chloro-5-fluoro-2-pyridyl)methyleneamino]-N-methyl-1,1-dioxo-1,2-benzothiazol-3-amine], 219 to 221 °C; in that of `CN(/N=C/c1cnc(N2CCC2)s1)C1=NS(=O)(=O)c2ccccc21` [Ex 61, N-[(E)-[2-(azetidin-1-yl)thiazol-5-yl]methyleneamino]-N-methyl-1,1-dioxo-1,2-benzothiazol-3-amine], 256 to 258 °C. The same measure, in the same setting: in the case of `CCN(/N=C/c1ccc2c(c1)C(C)(C)NC2=O)C1=NS(=O)(=O)c2ccccc21` [Ex 85, 5-[(E)-[(1,1-dioxo-1,2-benzothiazol-3-yl)-ethyl-hydrazono]methyl]-3,3-dimethyl-isoindolin-1-one] it was 289 to 291 °C.
